Experimental data as given in patent US12653840B2, “Methods for production of platelets from pluripotent stem cells and compositions thereof” (Astellas Institute for Regenerative Medicine, priority 2012, dated 2026).
“Also recorded” adds a separate entry of the source.

Experiments:
[1] = system: iPS derived megakaryocytes; assay: Platelet formation in static culture with MMP inhibitors; type: cell-based, human
Excerpt: FIG. 27. Platelet purity as a result of static culture in the presence of MMP8 specific inhibitor MMP8-I (second bar), pan-MMP inhibitor GM6001 (third bar), or the combination of MMP8-I and GM6001 (fourth bar). The MMP8-I is (3R)-(+)-[2-(4-Methoxybenzenesulfonyl)-1,2,3,4-tetrahydroisoquinoline-3-hydroxamate], and it is commercially available from Millipore. The first bar is the control.
FIG. 28. Platelets numbers as a result of static culture in the presence of MMP8 specific inhibitor MMP8-I (second bar), pan MMP inhibitor GM6001 (third bar), or the combination of MMP8-I and GM6001 (fourth bar). The first bar is the control.
The peak of platelet production is determined by measuring platelet content in the culture, for example on a daily basis for several days. It is typically 4-7 days after the beginning of the MLP differentiation culture period, although it may be longer or it may be shifted.

c-myc = assay: Relative quantitative mRNA analysis on day 6+4; type: cell-based, human; settings: 0.1 and 0.25 microM
Excerpt: (§1) FIG. 32. Relative quantitative analysis of mRNA of c-myc and GATA-1 on day 6+4 as a function of increasing dose of iBET-151. iBET concentrations: 0 (left bar), 0.1 microM (middle bar), 0.25 microM (right bar) for each triplet.

GATA-1 = assay: Relative quantitative mRNA analysis on day 6+4; type: cell-based, human; settings: 0.1 and 0.25 microM
Excerpt: as §1

[2] = system: cells undergoing in vitro megakaryopoiesis; assay: iBET-151 in PVE-HE to MLP differentiation culture, harvest at day 6+4; type: cell-based, human
Description: Megakaryocyte progenitor (MLP) numbers harvested at day 6+4 (i.e., day 10 of differentiation) as a function of increasing dose of iBET-151 (in μM). iBET is added to the culture at the 6+3 day time frame, and MLPs are exposed to iBET for a period of about 24 hours prior to their harvest. iBET concentrations: 0 (left bar), 0.1 microM (middle bar), 0.25 microM (right bar). […] CD14+ cell purity in cell population harvested at day 6+4 as a function of increasing dose of iBET-151. iBET concentrations: 0 (left bar), 0.1 microM (middle bar), 0.25 microM (right bar).

[3] = system: human and murine MLL-fusion leukemic cell lines; settings: through induction of early cell cycle arrest and apoptosis; cited from earlier work
MKs derived from HA-iPS = assay: Platelet generation from MKs under constant shear force in a microfluidic device; type: cell-based, human
Description: Matured MKs, derived from HA-iPS and MA09 hES lines, were used. Equal numbers of MKs suspended in MK-specific medium were loaded into a microfluidic device in the presence or absence of 20 μM MMP inhibitor GM6001. Constant shear force was applied to the MKs throughout the culture period. MK-medium downstream of MKs was collected at 30 minute intervals for a period of 6 hours. Platelet number and purity (i.e., percentage of total cells that are CD41a^+CD42b^+) in the collected media were measured using flow cytometer.
FIGS. 22-24 provide the results of platelet generation from MKs derived from HA-iPS. The platelets were generated under a constant shear force defined by a flow rate of […] μl/min. […] Purity is expressed at the percentage of total harvested cells that are CD41a+CD42b+.

CD42b = settings: reported; cited from earlier work
[4] = system: developing mouse platelet thrombus; assay: In vivo thrombus formation after laser-induced cremaster arteriolar wall injury, intravital microscopy; set-up: species or system macrophage-depleted NOD/SCID mice; settings: platelets pretreated with ReoPro
Description: Third, hiPSC-PLTs were analyzed for functionality using an in vivo assay system measuring thrombus formation in macrophage-depleted NOD/SCID mice. Briefly, intravital microscopy of cremaster muscle arterioles was performed as previously described (Cell Research 2011 21:530-45). Macrophage-depleted NOD/SCID mice were anesthetized by intraperitoneal injection of ketamine (125 mg/kg) and xylazine (25 mg/kg). A tracheal tube was inserted and the mouse was placed on a thermo-controlled blanket. After incision of the scrotum, the cremaster muscle was exteriorized onto an intravital microscopy tray. The muscle preparation was superfused with thermo-controlled (37° C.) and aerated (95% N2, 5% CO2) bicarbonate-buffered saline throughout the experiment. The cremaster muscle arteriolar wall was injured by micropoint laser ablation using a Micropoint Laser System (Photonics Instruments). […] Fluorescence and brightfield images were recorded using an Olympus BX61W microscope with a 60 x/1.0 NA water immersion objective and a high speed camera (Hamamatsu C9300) through an intensifier (Video Scope International). Data were collected for 5 min following vessel wall injury and analyzed using Slidebook v5.0 (Intelligent Imaging Innovations).

In the case of `COc1ccc(S(=O)(=O)N2Cc3ccccc3C[C@@H]2C(=O)NO)cc1` [MMP8 specific inhibitor, (3R)-(+)-[2-(4-Methoxybenzenesulfonyl)-1,2,3,4-tetrahydroisoquinoline-3-hydroxamate]], the “purity of iPS-derived platelets (CD41a+CD42b+)” value ([1]; added at peak of platelet production of MKs, static culture, control 43.7%) is reported as 65.5%, the “potency in protecting platelet function” value ([1]; comparative study of several specific MMP inhibitors) is reported as “more potency than GM6001” and the “CD41a+CD42b+ platelets produced, compared to GM6001” value ([1]; static culture) is reported as “Significantly more”. The “purity, more than obtained from GM6001-treated cultures” value ([1]; static culture) was “approximately 10%”.

With `COc1cc2c(cc1-c1c(C)noc1C)ncc1[nH]c(=O)n([C@H](C)c3ccccn3)c12` [i-BET-151] the “c myc gene expression (mRNA)” value (c-myc) was “dose:-dependent inhibition”, the “GATA1 gene expression (mRNA)” value (GATA-1) was “up-regulated” and the “number of CD14+ myeloid cells” value ([2]; 0.1 and 0.25 microM, day 6+4) was “dose-dependent decrease”. For the same molecule, the apoptosis ([2]; high dose) was “triggers massive apoptosis”, the “numbers of MK progenitors” value ([2]; lower doses in the micromolar (or submicromolar) range, 0.1 and 0.25 microM, about 24 hours) was “increased numbers” and the “efficacy against MLL-fusion leukemic cell lines” value [3] was “profound efficacy”.

In the case of dextran, the platelet formation (MKs derived from HA-iPS; 8% dextran added to increase viscosity of culture medium, with GM6001, shear force) is reported as “negative impact”.

For `CNC(=O)[C@H](Cc1c[nH]c2ccccc12)NC(=O)[C@@H](CC(=O)NO)CC(C)C` [GM6001], the “CD42b shedding from platelets” value (CD42b) is listed as “inhibit CD42b shedding”, the “platelet purity (percentage of total harvested cells that are CD41a+CD42b+)” value (MKs derived from HA-iPS; 20 μM, added at beginning of culture, constant shear force, vs DMSO) is listed as “significantly improved” and the “platelet yield / platelet numbers” value (MKs derived from HA-iPS; 20 μM, constant shear force, vs DMSO) is listed as “significantly improved; also recorded: significantly more platelets”.

B1: ReoPro: Fab fragment of a human-murine chimeric monoclonal antibody that binds specifically to αIIbβIII and inhibits platelet function (antibody, chains of the INN, looked up, V domains shown)
VH: EVQLQQSGTVLARPGASVKMSCEASGYTFTNYWMHWVKQRPGQGLEWIGAIYPGNSDTSYIQKFKGKAKLTAVTSTTSVYMELSSLTNEDSAVYYCTLYDGYYVFAYWGQGTLVTVSA
VL: EIVLTQSPVTLSVTPGDSVSLSCRASRDISNNLHWFQQTSHESPRLLIKYASQSMSGIPSRFSGSGSGTDFTLSINSVETEDFGMYFCQQTNSWPYTFGGGTKLEIK
modifications: Fab
For B1, the “number of platelets bound to / incorporating in the thrombus after ReoPro pretreatment” value [4] was “inhibited; also recorded: markedly reduced”.
